Several values for one entry are separate records, joined by “and”; a condition that tells them apart may be missing. Equal values may be shown once.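 Results reflect a 48-hour exposure of cells in 96-well plates to compound at five concentrations. GI50: concentration for 50% inhibition of growth. TGI: total growth inhibition.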
Columns and labels:
Experiment in all cases: NCI anticancer screen, dose series, 48 h
K-562 leukemia = test system: K-562 leukemia
BT-549 breast = test system: BT-549 breast
MALME-3M melanoma = test system: MALME-3M melanoma
MDA-MB-435 = test system: MDA-MB-435
UACC-257 melanoma = test system: UACC-257 melanoma
SF-268 CNS = test system: SF-268 CNS
RXF 393 renal = test system: RXF 393 renal
OVCAR-8 ovarian = test system: OVCAR-8 ovarian
MCF7 breast = test system: MCF7 breast
MDA-MB-231 breast = test system: MDA-MB-231 breast
PC-3 prostate = test system: PC-3 prostate
SK-OV-3 ovarian = test system: SK-OV-3 ovarian

SMILES | TGI (K-562 leukemia) | TGI (BT-549 breast) | TGI (MALME-3M melanoma) | TGI (MDA-MB-435) | TGI (UACC-257 melanoma) | TGI (SF-268 CNS) | TGI (RXF 393 renal) | TGI (OVCAR-8 ovarian) | TGI (MCF7 breast) | TGI (MDA-MB-231 breast) | TGI (PC-3 prostate) | TGI (SK-OV-3 ovarian) | GI50 (MALME-3M melanoma) | GI50 (MDA-MB-435) | GI50 (UACC-257 melanoma) | GI50 (MDA-MB-231 breast) | GI50 (MCF7 breast)
N#Cc1c(N)[nH]c(=S)c(C#N)c1-c1cccc(Cl)c1 | > 100 µM | > 100 µM | > 100 µM | 49.7 µM | > 100 µM | 56.1 µM | 46.6 µM | > 100 µM | > 100 µM | > 100 µM | 60.1 µM | – | – | – | – | – | –
O=c1oc2ccccc2c(O)c1C(c1cc(OCc2ccccc2)cc(OCc2ccccc2)c1)c1c(O)c2ccccc2oc1=O | > 25.4 µM | 20.9 µM | – | 31.3 µM | 38.2 µM | 33.3 µM | > 52 µM | > 44.5 µM | 48.5 µM | 34.5 µM | 21.1 µM | 20.1 µM | – | – | – | – | –
COc1ccc(-c2c(C#N)c(S)n(C3OC(COC(C)=O)C(OC(C)=O)C(OC(C)=O)C3OC(C)=O)c(=O)c2C#N)cc1 (configuration not stated) | – | 74.4 µM and 79 µM | > 100 µM | > 100 µM and 50.6 µM | > 100 µM and 42 µM | > 100 µM | 71.7 µM and 73 µM | > 100 µM | > 100 µM | 83.5 µM and > 100 µM | > 100 µM | 75.8 µM and > 100 µM | 77.1 µM and 37.7 µM | 56.9 µM and 21.3 µM | > 100 µM and 19.8 µM | 21.7 µM and 55 µM | –
O=C1CC2(C[C@@H]3CCCCCCCCC[C@@H](C3)C2)N1 (some centres not stated) | 55.1 µM | – | 24.5 µM | – | 25.1 µM | 39.8 µM | 30.9 µM | 33.5 µM | – | – | – | 28.4 µM | – | – | – | – | –
CCOC(=O)c1sc2nc(SC)nc3c2c1N=CN3c1ccc(Br)cc1 | > 100 µM | > 100 µM | > 100 µM | > 100 µM | > 100 µM | – | > 100 µM | > 100 µM | > 100 µM | > 100 µM | > 100 µM | > 100 µM | – | – | – | – | –
COc1ccc(-c2c(C#N)c(N)n(C3OC(CO)C(O)C(O)C3O)c(=S)c2C#N)cc1 (configuration not stated) | > 100 µM | > 100 µM | > 100 µM | – | > 100 µM | > 100 µM | > 100 µM | > 100 µM | > 100 µM | > 100 µM | > 100 µM | > 100 µM | – | – | – | – | > 100 µM and 38.4 µM
CC12CC(c3ccccc3O1)C(C(=O)Nc1ccc(F)cc1)C(=O)N2 (configuration not stated) | > 100 µM | > 100 µM | > 100 µM | > 100 µM | > 100 µM | > 100 µM | – | > 100 µM | > 100 µM | – | > 100 µM | > 100 µM | – | – | – | – | –
CCOc1ccc(N/C(=C(/C(Cl)=C(/Cl)NCCN)[N+](=O)[O-])n2nnc3ccccc32)cc1 | > 100 µM | > 100 µM | 27.6 µM | > 100 µM | > 100 µM | 34.5 µM | – | 30.4 µM | > 100 µM | > 100 µM | > 100 µM | > 100 µM | – | – | – | – | –
COc1ccc2nc(-c3ccc(OCc4ccccc4)cc3)ccc2c1 | > 100 µM | – | > 100 µM | – | > 100 µM | > 100 µM | > 100 µM | > 100 µM | – | – | – | > 100 µM | – | – | – | – | –
CC1C(c2cc(C(C)(C)C)c(O)c(C(C)(C)C)c2)c2cc3c(cc2OC1N1CCOCC1)OCO3 (configuration not stated) | > 100 µM | – | – | 68.2 µM | > 100 µM | 77.3 µM | – | 60 µM | > 100 µM | – | 31.6 µM | – | – | – | – | – | –
c1cc2nnc1SCCSCCSc1ccc(nn1)SCCSCCS2 | > 100 µM | – | > 100 µM | > 100 µM | > 100 µM | > 100 µM | > 100 µM | > 100 µM | > 100 µM | > 100 µM | > 100 µM | > 100 µM | – | – | – | – | –
CC(C)(C)OC(=O)NC(C)(C)C(=O)NCCC(=O)O | > 100 µM | > 100 µM | – | > 100 µM | > 100 µM | > 100 µM | > 100 µM | > 100 µM | > 100 µM | > 100 µM | > 100 µM | > 100 µM | – | – | – | – | –
COc1ccc(C2C(Cl)C(=O)N2NC(=O)c2ccc(NC(C)=O)cc2)cc1 (configuration not stated) | > 100 µM | – | > 100 µM | – | > 100 µM | > 100 µM | > 100 µM | > 100 µM | – | – | – | > 100 µM | – | – | – | – | –
CCN(CC)CCOC(c1cc(OC)ccc1OC)c1ccc2n1-c1ccccc1OC2 (configuration not stated) | 23.5 µM | 25.2 µM | 35.8 µM | 22.2 µM | 30.6 µM | 28.8 µM | 21.4 µM | 25.9 µM | 30.2 µM | 5.46 µM | 27.4 µM | – | – | – | – | – | –
CCCN=C1CC(C)Nc2ccccc2N1 (configuration not stated) | > 100 µM | > 100 µM | > 100 µM | > 100 µM | > 100 µM | > 100 µM | > 100 µM | > 100 µM | – | > 100 µM | > 100 µM | > 100 µM | – | – | – | – | –
CCOC(=O)c1cc(C2(O)CCN(Cc3ccccc3)C2=O)c(-c2cc(C)no2)[nH]1 (configuration not stated) | > 100 µM | > 100 µM | > 100 µM | > 100 µM | > 100 µM | > 100 µM | 65.7 µM | > 100 µM | > 100 µM | > 100 µM | > 100 µM | – | – | – | – | – | –
O=C1CC2C=CC(O)C(C1)C2 (configuration not stated) | > 100 µM | – | > 100 µM | > 100 µM | > 100 µM | > 100 µM | 12.2 µM | > 100 µM | > 100 µM | > 100 µM | > 100 µM | > 100 µM | – | – | – | – | –
COC1(C)CC2N(C(=O)c3ccccc3)N=C(c3ccccc3)CC2(C)O1 (configuration not stated) | > 100 µM | – | > 100 µM | – | > 100 µM | > 100 µM | – | > 100 µM | – | – | – | > 100 µM | – | – | – | – | –
CCCCN(CC)c1nc(C)nc2c1c(C)c(C)n2-c1c(C)cc(C)cc1C | 29.8 µM | 34.3 µM | 29.6 µM | 33.3 µM | 26.9 µM | 31.8 µM | 19.7 µM | 28.5 µM | – | 29.1 µM | 26.6 µM | 32.9 µM | – | – | – | – | –

From PubChem BioAssay (NCI)
